PubChem BioAssay (NCI)
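Step 1: Grow cells in 96-well plates. Step 2: Expose to compound for 48 hours at 5 concentrations. Step 3: Interpolate endpoints linearly; if unreached, use highest concentration. TGI is the concentration that stops growth completely.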

Legend:
Assay in all cases: NCI-60 cell line screen, 48 h
OVCAR-4 ovarian = test system: OVCAR-4 ovarian
HL-60(TB) leukemia = test system: HL-60(TB) leukemia
SK-MEL-28 melanoma = test system: SK-MEL-28 melanoma
MCF7 breast = test system: MCF7 breast
OVCAR-3 ovarian = test system: OVCAR-3 ovarian
SF-539 CNS = test system: SF-539 CNS
HOP-92 NSCLC = test system: HOP-92 NSCLC
SK-OV-3 ovarian = test system: SK-OV-3 ovarian
NCI-H460 lung = test system: NCI-H460 lung
CAKI-1 renal = test system: CAKI-1 renal

Question: With `C/C=C(\N=C=S)C(=O)OC1C(COC(C)=O)OC([C@]2(O)CC(=O)C(=N)C(C(=O)O)=C2O)C(O)C1OC1CC(OC)C(O)([C@@H](C)OC(=O)[C@@H](C)CC)C(C)O1` (stereo not given in full) as the compound, how does the TGI (OVCAR-4 ovarian) read?
Answer: 19.4 µM

Question: And the TGI (HL-60(TB) leukemia)?
Answer: 5.34 µM

Question: And the TGI (SK-MEL-28 melanoma)?
Answer: 18.5 µM

Question: And the TGI (MCF7 breast)?
Answer: 38.4 µM

Question: What about the TGI (OVCAR-3 ovarian) of the same compound?
Answer: 35.7 µM

Question: And the TGI (SF-539 CNS)?
Answer: 17.5 µM

Question: And the TGI (HOP-92 NSCLC)?
Answer: 9.77 µM

Question: What about the TGI (SK-OV-3 ovarian) of the same compound?
Answer: 52 µM

Question: What about the TGI (NCI-H460 lung) of the same compound?
Answer: 47.5 µM

Question: What about the TGI (CAKI-1 renal) of the same compound?
Answer: 35 µM
